Test results reported in patent US20220144854A1, “MACROCYCLIC COMPOUNDS” (ZENO MANAGEMENT, INC., priority 2019, published 2022).

Experiments:
[1] = test system: NCI-H929 (ATCC CRL-9068) cells; test: NCI-H929 cell proliferation assay (CellTiter-Glo); type: cell-based; settings: 72 h of compound treatment
Procedure: Cell proliferation was measured using the CellTiter-Glo® Luminescent Cell Viability Assay. The assay involved the addition of a single reagent (CellTiter-Glo® Reagent) directly to cells cultured in serum-supplemented medium.
Each compound evaluated was prepared as a DMSO stock solution (10 mM). Compounds were tested in duplicate on each plate, with a 10-point serial dilution curve (1:3 dilution). Compound treatment ([…]) was added from the compound dilution plate to the cell plate. The highest compound concentration was 10 μM (final), with a 0.1% final DMSO concentration. Plates were then incubated at 37° C., 5% CO2. After 72 h of compound treatment, cell plates were equilibrated at rt for approximately 30 mins. An equi-volume amount of CellTiter-Glo® Reagent (40 μL) was added to each well. Plates were mixed for 2 mins on an orbital shaker to induce cell lysis and then incubated at rt for 10 mins to stabilize the luminescent signal. Luminescence was recorded using an Envision plate reader according to CellTiter-Glo protocol. IC50 of each compound was calculated using GraphPad Prism by nonlinear regression analysis.

Mcl-1 = Mcl-1 (Homo sapiens, UniProt Q07820); test: Mcl-1 Homogeneous Time Resolved Fluorescence (HTRF) binding assay; settings: HTRF; 4 nM Mcl-1, 100 nM FAM-Bak peptide; 10-dose, singlicate; read-out: Mcl-1 IC50
Chain of Mcl-1 (Q07820 whole entry): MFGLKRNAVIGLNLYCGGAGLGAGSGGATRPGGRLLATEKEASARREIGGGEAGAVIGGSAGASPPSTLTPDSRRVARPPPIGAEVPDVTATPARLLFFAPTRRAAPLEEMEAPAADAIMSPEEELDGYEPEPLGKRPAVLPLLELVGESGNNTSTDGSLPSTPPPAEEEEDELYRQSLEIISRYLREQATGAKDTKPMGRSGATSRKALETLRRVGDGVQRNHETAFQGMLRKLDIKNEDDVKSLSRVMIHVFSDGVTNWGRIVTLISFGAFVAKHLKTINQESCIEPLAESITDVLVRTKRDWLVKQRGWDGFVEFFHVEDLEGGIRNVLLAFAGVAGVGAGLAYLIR

Row | SMILES | IC50 [1] [nM] | IC50 (Mcl-1) [nM]
1 | Cn1nc2cc1CSc1cc(c3ccccc3c1)OCCCc1c(C(=O)O)n(C)c3c(c(Cl)ccc13)-c1c(nn3c1CCC3)CSC2 (single isomer, unassigned) [Example 3A, (Z)-1^6-Chloro-1^1,6^1-dimethyl-2^5,2^6-dihydro-1^1H,2^4H,6^1H-10-oxa-4,8-dithia-1(7,3)-indola-2(3,2)-pyrrolo[1,2-b]pyrazola-6(3,5)-pyrazola-9(3,1)-naphthalenacyclotridecaphane-1^2-carboxylic acid] | < 100 | < 10
2 | Cn1nc2cc1CSc1cc(c3ccccc3c1)OCCCc1c(C(=O)O)n(C)c3c(c(Cl)ccc13)-c1c(nn3c1CCC3)CSC2 (single isomer, unassigned) [Example 3B, (Z)-1^6-Chloro-1^1,6^1-dimethyl-2^5,2^6-dihydro-1^1H,2^4H,6^1H-10-oxa-4,8-dithia-1(7,3)-indola-2(3,2)-pyrrolo[1,2-b]pyrazola-6(3,5)-pyrazola-9(3,1)-naphthalenacyclotridecaphane-1^2-carboxylic acid] | > 1000 | 10 to 100
3 | Cn1nc2cc1CSc1cc(c3ccccc3c1)OCCCc1c(C(=O)O)n(C)c3c(c(Cl)ccc13)-c1c(nn3c1COCC3)CSC2 (single isomer, unassigned) [Example 4A, (Z)-1^6-Chloro-1^1,6^1-dimethyl-2^6,2^7-dihydro-1^1H,2^4H,6^1H-10-oxa-4,8-dithia-2(3,2)-pyrazolo[5,1-c][1,4]oxazina-1(7,3)-indola-6(3,5)-pyrazola-9(3,1)-naphthalenacyclotridecaphane-1^2-carboxylic acid] | 100 to 1000 | < 10
4 | Cn1nc2cc1CSc1cc(c3ccccc3c1)OCCCc1c(C(=O)O)n(C)c3c(c(Cl)ccc13)-c1c(nn3c1COCC3)CSC2 (single isomer, unassigned) [Example 4B, (Z)-1^6-Chloro-1^1,6^1-dimethyl-2^6,2^7-dihydro-1^1H,2^4H,6^1H-10-oxa-4,8-dithia-2(3,2)-pyrazolo[5,1-c][1,4]oxazina-1(7,3)-indola-6(3,5)-pyrazola-9(3,1)-naphthalenacyclotridecaphane-1^2-carboxylic acid] | > 1000 | 10 to 100
5 | Cn1nc2cc1CSc1cc(c3ccccc3c1)OCCCc1c(C(=O)O)n(C)c3c(c(Cl)ccc13)-c1c(nn3c1CSC3)CSC2 (single isomer, unassigned) [Example 5A, (Z)-1^6-Chloro-1^1,6^1-dimethyl-1^1H,2^4H,2^6H,6^1H-10-oxa-4,8-dithia-2(3,2)-pyrazolo[1,5-c]thiazola-1(7,3)-indola-6(3,5)-pyrazola-9(3,1)-naphthalenacyclotridecaphane-1^2-carboxylic acid] | 100 to 1000 | < 10
6 | Cn1nc2cc1CSc1cc(c3ccccc3c1)OCCCc1c(C(=O)O)n(C)c3c(c(Cl)ccc13)-c1c(nn3c1CSC3)CSC2 (single isomer, unassigned) [Example 5B, (Z)-1^6-Chloro-1^1,6^1-dimethyl-1^1H,2^4H,2^6H,6^1H-10-oxa-4,8-dithia-2(3,2)-pyrazolo[1,5-c]thiazola-1(7,3)-indola-6(3,5)-pyrazola-9(3,1)-naphthalenacyclotridecaphane-1^2-carboxylic acid] | > 1000 | > 100
7 | Cc1[nH]nc2c1-c1c(Cl)ccc3c(c(C(=O)O)n(C)c13)CCCOc1cc(cc3ccccc13)SCc1cc(nn1C)CSC2 (single isomer, unassigned) [Example 6A, (Z)-1^6-Chloro-1^1,2^5,6^1-trimethyl-1^1H,2^1H,6^1H-10-oxa-4,8-dithia-1(7,3)-indola-2(4,3),6(3,5)-dipyrazola-9(3,1)-naphthalenacyclotridecaphane-1^2-carboxylic acid] | < 100 | < 10
8 | Cc1[nH]nc2c1-c1c(Cl)ccc3c(c(C(=O)O)n(C)c13)CCCOc1cc(cc3ccccc13)SCc1cc(nn1C)CSC2 (single isomer, unassigned) [Example 6B, (Z)-1^6-Chloro-1^1,2^5,6^1-trimethyl-1^1H,2^1H,6^1H-10-oxa-4,8-dithia-1(7,3)-indola-2(4,3),6(3,5)-dipyrazola-9(3,1)-naphthalenacyclotridecaphane-1^2-carboxylic acid] | > 1000 | 10 to 100
